Publication PMC12073449, “Development of a Mechanism of Action-Reflective Cell-Based Reporter Gene Assay for Measuring Bioactivities of Therapeutic Glucagon-like Peptide-2 Analogues” (Molecules, 2025)
Ends that are not written are not given here.

Tested on: HEK293-GLP-2R-Luc cells

## HGEGTFSSELATILDALAARDFINWLIATKITDKKKKKK-NH2 [glepaglutide]
Qvalue 1.61 × 10^−6
  log2 (TD/Ctrl) CPEB2: 1.107
  log2 (TD/Ctrl) GPAT3: 1.067
Qvalue 1.62 × 10^−11
  log2 (TD/Ctrl) LBH: 1.387
Qvalue 1.62 × 10^−22
  log2 (TD/Ctrl) CSRNP1: 2.05
Qvalue 1.63 × 10^−11
  log2 (TD/Ctrl) USP36: 1.039
Qvalue 1.71 × 10^−14
  log2 (TD/Ctrl) DNER: 3.018
Qvalue 1.72 × 10^−7
  log2 (TD/Ctrl) LOC102724428: 1.373
  log2 (TD/Ctrl) RELB: 1.9665
Qvalue 1.77 × 10^−4
  log2 (TD/Ctrl) BMF: −1.178
Qvalue 1.77 × 10^−11
  log2 (TD/Ctrl) PBX1: −1.095
Qvalue 1.80 × 10^−7
  log2 (TD/Ctrl) TNFAIP3: 1.227
Qvalue 1.83 × 10^−18
  log2 (TD/Ctrl) SCN9A: −1.8
Qvalue 1.84 × 10^−5
  log2 (TD/Ctrl) INPP5D: −2.417
Qvalue 1.87 × 10^−4
  log2 (TD/Ctrl) ICAM5: 1.744
Qvalue 1.87 × 10^−11
  log2 (TD/Ctrl) ZNF503: −1.2971
Qvalue 1.88 × 10^−5
  log2 (TD/Ctrl) MFSD2A: 1.193
Qvalue 1.89 × 10^−4
  log2 (TD/Ctrl) ADA: 1.023
Qvalue 1.91 × 10^−39
  log2 (TD/Ctrl) SV2C: 6.845
Qvalue 1.93 × 10^−15
  log2 (TD/Ctrl) ELL2: 1.192
Qvalue 1.93 × 10^−23
  log2 (TD/Ctrl) CD44: 2.115
Qvalue 1.97 × 10^−6
  log2 (TD/Ctrl) CYB5D2: −1.056
Qvalue 2.01 × 10^−5
  log2 (TD/Ctrl) DOK3: −1.636
Qvalue 2.01 × 10^−13
  log2 (TD/Ctrl) TFPI2: 2.377
Qvalue 2.02 × 10^−19
  log2 (TD/Ctrl) TUBB2A: 1.401
Qvalue 2.03 × 10^−14
  log2 (TD/Ctrl) SERTAD1: 1.452
Qvalue 2.06 × 10^−4
  log2 (TD/Ctrl) TRIM47: 1.231
Qvalue 2.06 × 10^−17
  log2 (TD/Ctrl) CD68: 2.012
Qvalue 2.07 × 10^−4
  log2 (TD/Ctrl) FRMPD4: −1.078
Qvalue 2.09 × 10^−50
  log2 (TD/Ctrl) ETV4: 3.646
Qvalue 2.12 × 10^−4
  log2 (TD/Ctrl) TUBA4A: 1.633
Qvalue 2.12 × 10^−19
  log2 (TD/Ctrl) SLC6A17: 2.784
Qvalue 2.21 × 10^−5
  log2 (TD/Ctrl) NAV2: 1.102
  log2 (TD/Ctrl) SOX2: −1.189
Qvalue 2.27 × 10^−19
  log2 (TD/Ctrl) IL6R: 1.742
Qvalue 2.28 × 10^−8
  log2 (TD/Ctrl) GPRC5A: 1.328
Qvalue 2.28 × 10^−9
  log2 (TD/Ctrl) SLC25A25: 1.117
Qvalue 2.29 × 10^−9
  log2 (TD/Ctrl) UPP1: 1.296
Qvalue 2.31 × 10^−9
  log2 (TD/Ctrl) OLIG2: 2.054
Qvalue 2.37 × 10^−34
  log2 (TD/Ctrl) TNC: 1.657
Qvalue 2.38 × 10^−8
  log2 (TD/Ctrl) GPR50: 2.002
Qvalue 2.40 × 10^−4
  log2 (TD/Ctrl) CPA4: 5.506
Qvalue 2.42 × 10^−6
  log2 (TD/Ctrl) FAM217B: −1.106
Qvalue 2.50 × 10^−4
  log2 (TD/Ctrl) CCDC9: 1.137
  log2 (TD/Ctrl) PLK3: 1.391
Qvalue 2.51 × 10^−19
  log2 (TD/Ctrl) TCIM: 7.037
Qvalue 2.55 × 10^−11
  log2 (TD/Ctrl) NRP1: −1.191
Qvalue 2.56 × 10^−11
  log2 (TD/Ctrl) EPHA2: 1.303
Qvalue 2.57 × 10^−12
  log2 (TD/Ctrl) DUSP4: 1.926
Qvalue 2.58 × 10^−27
  log2 (TD/Ctrl) MAFF: 3.639
Qvalue 2.58 × 10^−33
  log2 (TD/Ctrl) AMOT: −1.62
Qvalue 2.59 × 10^−23
  log2 (TD/Ctrl) TNFRSF12A: 2.183
Qvalue 2.68 × 10^−12
  log2 (TD/Ctrl) ZFP36: 1.676
Qvalue 2.71 × 10^−4
  log2 (TD/Ctrl) ARL14: 3.565
Qvalue 2.71 × 10^−23
  log2 (TD/Ctrl) JUNB: 2.192
Qvalue 2.74 × 10^−4
  log2 (TD/Ctrl) C1GALT1C1: −1.022
Qvalue 2.76 × 10^−6
  log2 (TD/Ctrl) UBALD2: 1.053
Qvalue 2.82 × 10^−4
  log2 (TD/Ctrl) ZNF33B: −1.021
Qvalue 2.87 × 10^−4
  log2 (TD/Ctrl) YPEL4: 2.621
Qvalue 2.87 × 10^−7
  log2 (TD/Ctrl) WNT5A: −1.332
Qvalue 2.88 × 10^−7
  log2 (TD/Ctrl) FLNC: 1.243
Qvalue 2.91 × 10^−8
  log2 (TD/Ctrl) NFIL3: 1.177
Qvalue 2.97 × 10^−31
  log2 (TD/Ctrl) TXNIP: −1.9141
Qvalue 2.98 × 10^−32
  log2 (TD/Ctrl) GLA: 1.68
Qvalue 3.01 × 10^−4
  log2 (TD/Ctrl) VAV1: 1.198
Qvalue 3.01 × 10^−9
  log2 (TD/Ctrl) RGS2: 1.337
Qvalue 3.01 × 10^−13
  log2 (TD/Ctrl) NREP: −1.339
Qvalue 3.15 × 10^−7
  log2 (TD/Ctrl) B3GAT1: 1.485
  log2 (TD/Ctrl) OLFM2: 1.732
Qvalue 3.17 × 10^−4
  log2 (TD/Ctrl) IL15RA: 1.677
Qvalue 3.27 × 10^−6
  log2 (TD/Ctrl) TNFRSF9: 1.903
Qvalue 3.31 × 10^−6
  log2 (TD/Ctrl) RASD1: 2.273
Qvalue 3.35 × 10^−6
  log2 (TD/Ctrl) TSC22D3: 1.67
Qvalue 3.37 × 10^−6
  log2 (TD/Ctrl) MSANTD3-TMEFF1: 1.009
Qvalue 3.39 × 10^−5
  log2 (TD/Ctrl) SKIDA1: −1.407
Qvalue 3.44 × 10^−6
  log2 (TD/Ctrl) USH1C: 2.547
Qvalue 3.45 × 10^−5
  log2 (TD/Ctrl) TMEM231: 1.1218
Qvalue 3.45 × 10^−9
  log2 (TD/Ctrl) COL12A1: 1.157
Qvalue 3.50 × 10^−4
  log2 (TD/Ctrl) BEGAIN: 1.974
Qvalue 3.51 × 10^−4
  log2 (TD/Ctrl) PHLDA2: 1.79
Qvalue 3.52 × 10^−9
  log2 (TD/Ctrl) PCDH7: −1.185
Qvalue 3.54 × 10^−4
  log2 (TD/Ctrl) ULBP2: 1.312
Qvalue 3.56 × 10^−4
  log2 (TD/Ctrl) PHF21B: 1.711
Qvalue 3.59 × 10^−15
  log2 (TD/Ctrl) JUN: 1.216
Qvalue 3.61 × 10^−6
  log2 (TD/Ctrl) PIM1: 1.177
Qvalue 3.63 × 10^−4
  log2 (TD/Ctrl) CSGALNACT1: 2.392
Qvalue 3.74 × 10^−4
  log2 (TD/Ctrl) MN1: 1.348
Qvalue 3.77 × 10^−12
  log2 (TD/Ctrl) ATF3: 2.527
Qvalue 3.78 × 10^−13
  log2 (TD/Ctrl) CASP9: 1.439
Qvalue 3.88 × 10^−22
  log2 (TD/Ctrl) C11orf96: 4.461
Qvalue 3.94 × 10^−5
  log2 (TD/Ctrl) FHL3: 1.045
Qvalue 4.00 × 10^−5
  log2 (TD/Ctrl) MRC2: 1.244
Qvalue 4.00 × 10^−6
  log2 (TD/Ctrl) SH2D3C: 2.239
